Data reported in article PMC12624906, “Discovery of benzyl carbamate inhibitors of coronavirus M^pro enzymes from a legacy collection of cysteine protease inhibitors” (Journal of Enzyme Inhibition and Medicinal Chemistry, 2025).
Several values for one entry are separate records, joined by “and”; a condition that tells them apart may be missing. Identical values can stand only once. Like-named read-outs stand apart in the source and are kept apart here.

What was measured:
SARS-CoV M^pro = SARS-CoV M^pro (Severe acute respiratory syndrome coronavirus, UniProt P0C6X7); experiment: biochemical; assay type: biochemical; conditions: for IC50: n = 6
in vitro [1] = conditions: green monkey
SARS-CoV-2 M^pro [2] = molecular target: T1, SARS-CoV-2 M^pro (Severe acute respiratory syndrome coronavirus 2, UniProt P0DTD1); experiment: biochemical; conditions: compound at 10 μM, 15-min pre-incubation, relative to DMSO control, mean ± SE; for % inhibition of SARS-CoV-2 M^pro activity: 10 µM
SARS-CoV-2 M^pro [3] = molecular target: T1, SARS-CoV-2 M^pro; assay type: biochemical; conditions: pre-incubated 30 min at 10-fold IC50 with 100× enzyme, diluted 100-fold to 0.1-fold IC50; monitored 2 h
[4] = molecular target: T2, human cathepsin L (hCatL) (Homo sapiens, UniProt P07711); experiment: hCatL inhibition assay (Z-Phe-Arg-AMC); assay type: biochemical; conditions: 15-min pre-incubation; pH 5.5; n = 6
T2 construct: purchased R&D Systems 952-CY-010

MERS-CoV M^pro = MERS-CoV M^pro (Middle East respiratory syndrome-related coronavirus, UniProt K9N7C7); experiment: biochemical; assay type: biochemical; conditions: for IC50: n = 6
SARS-CoV-2 M^pro [5] = molecular target: T1, SARS-CoV-2 M^pro; experiment: biochemical; assay type: biochemical; conditions: for IC50: 15-min pre-incubation, two independent assays in triplicate (n = 6)
in vitro [6] = conditions: mouse
SARS-CoV-2 PL^pro = SARS-CoV-2 PL^pro (Severe acute respiratory syndrome coronavirus 2, UniProt P0DTD1); experiment: biochemical; conditions: 15-min pre-incubation, one assay in triplicate (n = 3), mean ± SE
SARS-CoV-2 M^pro [7] = molecular target: T1, SARS-CoV-2 M^pro; experiment: biochemical; assay type: biochemical; conditions: for fold decrease in IC50 with 15-min pre-incubation vs without: SARS-CoV-2 M^pro, 15-min vs 0-min pre-incubation
[8] = molecular target: T2, human cathepsin L (hCatL); design: method as in PMID 37435731; conditions: E-64 data reported previously; cited from earlier work
Vero cells = test system: Vero cells; design: method as in PMID 38194508; conditions: ribavirin data reported previously; cited from earlier work
L929 cells = test system: L929 cells; design: method as in PMID 39072124; conditions: ribavirin data reported previously; cited from earlier work
[9] = 15-min pre-incubation before substrate, value per independent assay (Figure 3, black), read-out: IC50 SARS-CoV-2 M^pro, 15-min pre-incubation
[10] = 30-min pre-incubation before substrate, value per independent assay (Figure 3, violet), read-out: IC50 SARS-CoV-2 M^pro, 30-min pre-incubation
[11] = no pre-incubation before substrate, value per independent assay (Figure 3, teal), read-out: IC50 SARS-CoV-2 M^pro, 0-min pre-incubation

T2 sequence (P07711 114-333): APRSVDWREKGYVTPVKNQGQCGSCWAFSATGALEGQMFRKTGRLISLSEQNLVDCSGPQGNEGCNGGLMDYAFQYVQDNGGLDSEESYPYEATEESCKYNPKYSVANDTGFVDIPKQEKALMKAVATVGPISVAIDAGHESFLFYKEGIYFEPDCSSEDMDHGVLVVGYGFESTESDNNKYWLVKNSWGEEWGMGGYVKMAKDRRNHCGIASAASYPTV
Chain of MERS-CoV M^pro (K9N7C7 3248-3553 limits assumed): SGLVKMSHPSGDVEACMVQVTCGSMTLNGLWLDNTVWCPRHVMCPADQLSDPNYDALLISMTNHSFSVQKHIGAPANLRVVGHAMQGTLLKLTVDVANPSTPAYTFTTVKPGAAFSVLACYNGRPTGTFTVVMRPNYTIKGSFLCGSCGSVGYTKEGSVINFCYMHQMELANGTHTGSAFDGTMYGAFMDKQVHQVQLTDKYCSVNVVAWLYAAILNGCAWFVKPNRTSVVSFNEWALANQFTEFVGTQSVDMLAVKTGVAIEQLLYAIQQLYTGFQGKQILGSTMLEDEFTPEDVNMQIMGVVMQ

SMILES	IC50 (SARS-CoV M^pro)	CC50 at 48 h (in vitro [1]) [nM]	inhibition at 10 µM (SARS-CoV-2 M^pro [2]) [%]	inhibition after rapid dilution (reversibility) (SARS-CoV-2 M^pro [3])	IC50 [4] [nM]	IC50 (MERS-CoV M^pro) [nM]	IC50 (SARS-CoV-2 M^pro [5]) [nM]	CC50 at 48 h (in vitro [6]) [nM]	inhibition at 10 µM (SARS-CoV-2 PL^pro) [%]	IC50 (SARS-CoV-2 M^pro [7]; [9])	IC50 (SARS-CoV-2 M^pro [7]; [10])	fold decrease in IC50 with 15-min pre-incubation vs without (SARS-CoV-2 M^pro [7]) [fold]	IC50 (SARS-CoV-2 M^pro [7]; [11])	further results
COC(=O)/C=C/C(=O)[C@@H](C)NC(=O)[C@H](Cc1ccccc1)NC(=O)OCc1ccccc1 [Compound 1a]	699 ± 12.5 nM	17200 ± 500	> 95	reversible inhibition	319 ± 1	3790 ± 640	415 ± 18	73500 ± 4340	0	433 nM and 397 nM	249 nM and 301 nM	~2	1020 nM and 1160 nM	% inhibition of SARS-CoV-2 M^pro activity (SARS-CoV-2 M^pro [2]): 96.75 ± 1.04%
O=C(NC(CCc1ccccc1)C(O)c1cc1=O)C(Cc1ccccc1)NC(=O)N1CCOCC1 (centres unmarked) [Compound 2a]	> 10000 nM		54 ± 1.34		184 ± 3	> 10000	8120 ± 40		5.2 ± 1.23					
CCOC(=O)C1CCN(C(=O)N[C@@H](CC(C)C)C(=O)N[C@@H](/C=C/S(=O)(=O)c2ccccc2)COc2ccccc2)CC1 [Compound 3a]	> 10000 nM		51.5 ± 1.38		763 ± 79	> 10000	16420 ± 90		1.84 ± 2.85					
O=C(N[C@H](CCc1ccccc1)C(=O)CS(=O)(=O)c1ccccc1)[C@H](Cc1ccccc1)NC(=O)N1CCOCC1 [Compound 4a]	> 10000 nM		52.5 ± 3.61		10700 ± 240	> 10000	8720 ± 540		1.56 ± 4.68					
C=CC(=O)[C@@H](C)NC(=O)[C@@H](Cc1ccccc1)NC(=O)OCc1ccccc1 [Compound 5a]	110 ± 17.3 nM	49000 ± 3280	> 95	reversible inhibition	> 10000	830 ± 53.5	160 ± 5.8	102000 ± 2060	6.14 ± 2.42	154 nM and 166 nM	103 nM and 115 nM	~4	757 nM and 708 nM	% inhibition of SARS-CoV-2 M^pro activity (SARS-CoV-2 M^pro [2]): 100.00 ± 0.00%; IC50 hCatL [4]: inactive; fold decrease in activity against MERS-CoV M^pro compared to SARS-related M^pro enzymes (MERS-CoV M^pro): ~5 fold
C=CC(=O)[C@H](C)NC(=O)[C@@H](Cc1ccccc1)NC(=O)OCc1ccccc1 [Compound 5b]	73 nM and 73.2 nM	37500 ± 2140	100	reversible inhibition	> 10000		128 ± 6	85900 ± 1690		134 nM and 122 nM	114 nM and 111 nM	~4	639 nM and 707 nM	fold greater IC50 than nirmatrelvir, SARS-CoV M^pro (SARS-CoV M^pro): 2.4 fold; IC50 hCatL [4]: inactive; fold less potent than nirmatrelvir, SARS-CoV-2 M^pro IC50 (SARS-CoV-2 M^pro [5]): approximately 7 fold
CC(C)C[C@H](NC(=O)[C@H]1O[C@@H]1C(=O)O)C(=O)NCCCCN=C(N)N [Compound E-64]														IC50 [8]: 8 ± 1 nM
NC(=O)c1ncn([C@@H]2O[C@H](CO)[C@@H](O)[C@H]2O)n1 [Ribavirin, ribavirin]														CC50 (Vero cells): > 100000 nM; CC50 (L929 cells): > 100000 nM
